Test results taken from PMC7059089, “Bioguided Isolation and Structure Identification of Acetylcholinesterase Enzyme Inhibitors from Drynariae Rhizome” (Journal of Analytical Methods in Chemistry, 2020).

Molecular target: T1, AChE (acetylcholinesterase) (Electrophorus electricus, UniProt O42275)
T1 construct: obtained from the head of an electric eel; purchased Shanghai Source Biotech Co. Ltd. (Shanghai, China); host or cells: electric eel tissue (head)
Assay: biochemical
Details: UPLC-MS/MS assay, ACh-I substrate, 37°C, 25 min, pH 8.0, n = 6, ± SD; read-out: IC50 against AChE
Description: AChE (acetylcholinesterase, obtained from the head of an electric eel, 500 U), iodized acetylcholine (ACh-I, purity > 98.0%), iodized choline (Ch-I, purity > 98.0%), and Tris-HCl buffer (1 mol/L, pH 8.0) were all purchased from Shanghai Source Biotech Co. Ltd. (Shanghai, China). […] UPLC-grade acetonitrile was obtained from Fisher (Fair Lawn, NJ, USA). Water was purified by redistillation and a Milli-Q® ultrapure water system (Millipore, Bedford, MA, USA). Other chemicals and solvents used were of analytical grade.
AChE inhibition activities of the analytes were determined in vitro by monitoring the transformation from a substrate (ACh-I) to the product (Ch-I) catalyzed AChE, and Ch-I was quantified with UPLC-MS/MS to access the AChE activity. The reaction was conducted in a 100 μL mixture, consisting of 50 μL AChE solution (0.5 U/mL), 45 μL ACh-I solution (400 μg/mL), and 5 μL tested sample or blank Tris solution which were all dissolved in Tris buffer (pH 8.0). The mixture was incubated at 37°C in a thermostatic water bath for 25 min and then terminated by 500 μL acetonitrile at 0°C immediately. The terminal solution was centrifuged at 20,000g for 15 min, and the supernatant was used for UPLC-MS/MS analysis.
The […] inhibition was calculated as follows:(1) inhibition %=Cb−Cs/Cb∗100%. where Cb means the Ch-I concentration incubated without AChE inhibitor and Cs means the Ch-I concentration incubated with inhibitor. The inhibitory activities of the AChE inhibitors were assessed by the IC50 values of tested compounds. Galanthamine was selected as a positive control.
Liquid chromatography analysis was accomplished on an ACQUITY UPLC™ system (Waters Corp., Milford, MA, USA). The chromatographic separation was carried out using an ACQUITY UPLCTM BEH C18 column (2.1 × 50 mm, 1.7 μm) at 30°C. The isocratic elution mobile phase consisted of 0.5% acetic acid (A) and acetonitrile (B) (40 : 60) to guarantee the peak shape of Ch-I.
A Waters® Micromass® Quattro Premier™ XE triple-quadrupole tandem mass spectrometer equipped with an electrospray ionization interface (TQ-ESI) was used for mass spectrometric detection. The positive ESI source operation optimal parameters were capillary voltage 3.0 kV, extractor voltage 3.00 V, skimmer 25.0 V, fragmentor 35 V, octopole Rf peak 3000 v, source temperature 120°C, and desolvation temperature 300°C. Nitrogen was used as the desolvation gas and cone gas at a flow of 600 L/h and 50 L/h, respectively. Argon was used as the collision gas at a pressure of approximately 2.61 × 10^−3 mbar. A multiple reaction monitoring (MRM) mode was used to quantify Ch-I, and the fragments of 104.34 Th and 58.53 Th were selected as the parent ion and daughter ion to obtain accurate quantitation in the mixture containing herb extract. The MS scan rate spectrum was 5000 amu/s, dwell time 5 ms, and m/z range 0–300 Th. All data were acquired and analyzed by Mass Lynx™ NT 4.1 software with the Quan Lynx™ program (Waters, Milford, MA, USA).
The reaction procedure was conducted with reference to Liu's report; moreover, the enzyme constants, steady-state kinetics, reaction temperature, reaction time, substrate concentration, and AChE concentration were investigated and optimized to guarantee the utilization. […] The concentration of AChE in Liu's report was 3.470 U/mL.

T1 sequence (O42275 24-633): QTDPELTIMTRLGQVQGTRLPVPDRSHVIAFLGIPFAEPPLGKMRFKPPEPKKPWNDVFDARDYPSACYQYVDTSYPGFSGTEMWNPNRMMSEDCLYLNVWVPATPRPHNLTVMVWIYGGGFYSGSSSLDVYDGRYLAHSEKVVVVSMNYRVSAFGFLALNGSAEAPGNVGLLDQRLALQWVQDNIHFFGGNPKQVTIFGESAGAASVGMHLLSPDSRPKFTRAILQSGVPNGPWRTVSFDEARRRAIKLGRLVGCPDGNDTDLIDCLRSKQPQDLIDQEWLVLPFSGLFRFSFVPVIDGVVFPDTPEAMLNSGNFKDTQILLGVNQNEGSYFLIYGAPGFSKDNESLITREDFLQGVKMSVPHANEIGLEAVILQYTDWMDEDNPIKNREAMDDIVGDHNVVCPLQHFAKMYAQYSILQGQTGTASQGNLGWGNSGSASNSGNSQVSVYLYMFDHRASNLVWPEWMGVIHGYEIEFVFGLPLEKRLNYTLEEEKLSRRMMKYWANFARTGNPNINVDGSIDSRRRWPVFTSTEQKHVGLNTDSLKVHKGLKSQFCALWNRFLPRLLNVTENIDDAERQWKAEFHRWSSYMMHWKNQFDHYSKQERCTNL

O=C1C[C@@H](c2ccc(O)cc2)Oc2cc(O)cc(O)c21 [Naringenin, naringenin]
IC50: 3.81 ± 0.21 µM

O=C1C[C@@H](c2ccc(O)c(O)c2)Oc2cc(O)cc(O)c21 [Eriodictyol, eriodictyol]
IC50: 7.19 ± 0.62 µM

C[C@@H]1O[C@@H](O[C@H]2[C@H](Oc3cc(O)c4c(c3)O[C@H](c3ccc(O)c(O)c3)CC4=O)O[C@H](CO)[C@@H](O)[C@@H]2O)[C@H](O)[C@H](O)[C@H]1O [Neoeriocitrin, neoeriocitrin]
IC50: 22.5 ± 1.25 µM

O=c1cc(-c2ccc(O)c(O)c2)oc2cc(O[C@@H]3O[C@H](CO)[C@H](O)[C@H](O)[C@H]3O)cc(O)c12 [Luteolin-7-O-β-D-glucoside, luteolin-7-O-β-D-glucoside]
IC50: 17.1 ± 1.02 µM

O=c1c(O[C@@H]2O[C@H](CO)[C@@H](O)[C@H](O)[C@H]2O)c(-c2ccc(O)cc2)oc2cc(O)cc(O)c12 [Astragalin, astragalin]
IC50: 18.2 ± 2.33 µM

O=c1cc(-c2ccc(O)c(O)c2)oc2cc(O)cc(O)c12 [Luteolin, luteolin]
IC50: 17.3 ± 0.23 µM

C[C@@H]1O[C@@H](O[C@H]2[C@H](Oc3cc(O)c4c(c3)O[C@H](c3ccc(O)cc3)CC4=O)O[C@H](CO)[C@@H](O)[C@@H]2O)[C@H](O)[C@H](O)[C@H]1O [Naringin, naringin]
IC50: 26.4 ± 1.17 µM
